Laboratory results from US20250129096A1, “ANNULATED 2-AMINO-3-CYANO THIOPHENES AND DERIVATIVES FOR THE TREATMENT OF CANCER” (Boehringer Ingelheim Int'l GmbH Corp., priority 2021, published 2025).
In brackets after ≈: the same amount, converted by molar mass. Where two headings read alike, the source gives them in different places. Blank lines part the entries; values can stand above or below the molecule they belong to.

Tests used:
KRAS (G12C)::SOS1 = target: T1, KRAS (G12C)::SOS1 (Homo sapiens, UniProt P01116, C118S/C51S/C80L/G12C); experiment: KRAS::SOS1 AlphaScreen binding assay, KRAS G12C
T1 construct: KRAS (G12C) 1-169, N-terminal 6His-tag for purification, cleaved off; 6His-tag (N, cleaved yes)
Protocol: (§1) Low IC50 values in this assay setting are indicative of strong inhibition of protein-protein interaction between SOS1 and KRAS:
(§2) These assays measure the inhibitory effect of compounds on KRAS mutant protein-protein interactions using the Alpha Screen technology by Perkin Elmer.
(§3) For the chosen highest assay concentration of 100 μM, 150 nL of compound solution are transferred from a 10 mM DMSO compound stock solution. A series of eleven fivefold dilutions per compound are transferred to the assay plate, compound dilutions are tested in duplicates. DMSO are added as backfill to a total volume of 150 nL.
(§4) The assays run on a fully automated robotic system in a darkened room below 100 Lux. To 150 nl of compound dilution 10 μl of a mix including KRAS mutant protein, SOS1 (final assay concentrations see above) and GDP nucleotide (Sigma G7127; final assay concentration 10 μM) in assay buffer (1×PBS, 0.1% BSA, 0.05% Tween 20) are added into columns 1-24. After 30 minutes incubation time 5 μl of Alpha Screen bead mix in assay buffer are added into columns 1-23.
(§5) Plates are kept at room temperature in a darkened incubator. After an additional 60 minutes incubation time the signal is measured in a PerkinElmer Envision HTS Multilabel Reader using the AlphaScreen specs from PerkinElmer.
(§6) IC50 values are calculated and analyzed with Boehringer Ingelheim's MEGALAB IC50 application using a 4 parametric logistic model.

KRAS (WT)::SOS1 = target: T2, KRAS (WT)::SOS1 (Homo sapiens, UniProt P01116, C118S); experiment: KRAS::SOS1 AlphaScreen binding assay, KRAS WT
T2 construct: KRAS (WT) 1-169, N-terminal 6His-tag for purification, cleaved off; 6His-tag (N, cleaved yes); TEV cleavage site
Protocol: as §1, §2, §3, §4, §5, §6

KRAS G12D Ba/F3 cells = KRAS G12D Ba/F3 cells (Homo sapiens, UniProt P01116, G12D, cells depend on it); experiment: Ba/F3 proliferation assay, KRAS G12D; assay type: cell-based; conditions: 72 h, AlamarBlue; read-out: KRAS G12D Ba/F3 IC50
Protocol: (§7) To generate KRASG12-dependent Ba/F3 models, Ba/F3 cells are transduced with retroviruses containing vectors that harbor KRASG12 isoforms. Platinum-E cells (Cell Biolabs) are used for retrovirus packaging. Retrovirus is added to Ba/F3 cells. To ensure infection, 4 μg/mL polybrene is added and cells are spinfected. […] Cells with an infection efficiency of 10% to 20% are further cultivated and puromycin selection with 1 μg/mL is initiated. As a control, parental Ba/F3 cells are used to show selection status. Selection is considered successful when parental Ba/F3 cells cultures died. To evaluate the transforming potential of KRASG12 mutations, the growth medium is no longer supplemented with IL-3. Ba/F3 cells harboring the empty vector are used as a control. Approximately ten days before conducting the experiments, puromycin is left out. […] All treatments are performed in technical duplicates. […] AlamarBlue™(ThermoFisher), a viability stain, is added and fluorescence measured in the PerkinElmer Envision HTS Multilabel Reader. The raw data are imported into and analyzed with the Boehringer Ingelheim proprietary software MegaLab (curve fitting based on the program PRISM, GraphPad Inc.).

KRAS G12C Ba/F3 cells = KRAS G12C Ba/F3 cells (Homo sapiens, UniProt P01116, G12C, cells depend on it); experiment: Ba/F3 proliferation assay, KRAS G12C; assay type: cell-based; conditions: 72 h, AlamarBlue; read-out: KRAS G12C Ba/F3 IC50
Protocol: as §7

KRAS (G12D)::SOS1 = target: T3, KRAS (G12D)::SOS1 (Homo sapiens, UniProt P01116, G12D); experiment: KRAS::SOS1 AlphaScreen binding assay, KRAS G12D
T3 construct: KRAS (G12D) 1-169, N-terminal 6His-tag, C-terminal avi-tag; 6His-tag (N); purchased Xtal BioStructures, Inc. (KRAS G12D); Viva Biotech Ltd (SOS1)
Protocol: as §1, §2, §3, §4, §5, §6

[1] = Solubility measurement (DMSO solution precipitation method); assay type: physicochemical; conditions: aqueous buffer, kinetic from dmso stock, ambient temperature
Protocol: The DMSO solution is diluted with an aqueous medium (McIlvaine buffer with pH=4.5 or 6.8) to a final concentration of 250 μM. After 24 h of shaking at ambient temperature a potentially formed precipitate is removed by filtration. The concentration of the test compound in the filtrate is determined by LC-UV methods by calibrating the signal to the signal of a reference solution with complete dissolution of the test compound in acetonitrile/water (1:1) with known concentration.

[2] = Metabolic (microsomal) stability assay, HLM; assay type: in vitro ADME; conditions: human liver microsomes, 1 μM test compound, predicted clearance as percent of liver blood flow
Protocol: The metabolic degradation of the test compound is assayed at 37° C. with pooled liver microsomes (mouse (MLM), rat (RLM) or human (HLM)). The final incubation volume of 48 μL per time point contains TRIS buffer (pH 7.5; 0.1 M), magnesium chloride (6.5 mM), microsomal protein (0.5 mg/mL for mouse/rat, 1 mg/mL for human specimens) and the test compound at a final concentration of 1 μM. Following a short preincubation period at 37° C., the reactions are initiated by addition of 12 μL beta-nicotinamide adenine dinucleotide phosphate, reduced form (NADPH, 10 mM) and terminated by transferring an aliquot into solvent after different time points (0, 5, 15, 30, 60 min). Additionally, the NADPH-independent degradation is monitored in incubations without NADPH, terminated at the last time point by addition of acetonitrile. The quenched incubations are pelleted by centrifugation (4,000 rpm, 15 min). An aliquot of the supernatant is assayed by LC-MS/MS to quantify the concentration of parent compound in the individual samples.
In vitro intrinsic clearance (CLint, in vitro) is calculated from the time course of the disappearance of the test drug during the microsomal incubation. Each plot is fitted to the first-order elimination rate constant as C(t)=C0*exp(−ke*t), where C(t) and C0 are the concentration of unchanged test drug at incubation time t and that at preincubation and ke is the disappearance rate constant of the unchanged drug. Subsequently, CLint, in vitro (μL min^−1·amount protein) values are converted to predicted CLint, in vivo (mL min^−1 kg^−1) from incubation parameters according to the equation CLint, in vivo=CLint, in vitro×(incubation volume (ml)/amount protein (mg))×(amount protein (mg)/g liver tissue)×(liver weight/body wt.). For better across species comparison the predicted clearance is expressed as percent of the liver blood flow [% QH] (mL min^−1 kg^−1) in the individual species. In general, high stability (corresponding to low % QH) of the compounds across species is desired.

KRAS G12V Ba/F3 cells = KRAS G12V Ba/F3 cells (Homo sapiens, UniProt P01116, G12V, cells depend on it); experiment: Ba/F3 proliferation assay, KRAS G12V; assay type: cell-based; conditions: 72 h, AlamarBlue; read-out: KRAS G12V Ba/F3 IC50
Protocol: as §7

[3] = McIlvaine buffer pH 4.5, 24 h, read-out: solubility pH 4.5
[4] = McIlvaine buffer pH 6.8, 24 h, read-out: solubility pH 6.8

T1 sequence (P01116 1-169 isoform P01116-2 G12C/C51S/C80L/C118S): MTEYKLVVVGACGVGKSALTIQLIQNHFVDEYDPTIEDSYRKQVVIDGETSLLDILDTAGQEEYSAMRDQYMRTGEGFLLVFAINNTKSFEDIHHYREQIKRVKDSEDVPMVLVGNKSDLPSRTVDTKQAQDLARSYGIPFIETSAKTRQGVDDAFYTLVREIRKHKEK
Chain of KRAS G12D Ba/F3 cells (P01116 whole entry G12D, canonical isoform): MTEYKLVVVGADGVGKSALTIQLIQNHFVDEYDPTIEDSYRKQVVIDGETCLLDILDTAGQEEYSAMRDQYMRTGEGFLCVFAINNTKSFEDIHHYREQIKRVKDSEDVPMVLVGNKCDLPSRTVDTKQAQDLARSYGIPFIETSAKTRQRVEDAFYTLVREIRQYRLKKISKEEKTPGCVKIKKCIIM
Chain of KRAS G12C Ba/F3 cells (P01116 whole entry G12C): as the sequence (P01116 whole entry G12D, canonical isoform) above, with D12C counted along it
T3 sequence (P01116 1-169 isoform P01116-2 G12D): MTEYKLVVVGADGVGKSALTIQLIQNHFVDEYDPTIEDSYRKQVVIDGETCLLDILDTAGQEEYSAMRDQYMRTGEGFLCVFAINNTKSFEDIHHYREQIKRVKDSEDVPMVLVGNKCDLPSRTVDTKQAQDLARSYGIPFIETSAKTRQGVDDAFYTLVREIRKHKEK
T2 sequence (P01116 1-169 isoform P01116-2 C118S): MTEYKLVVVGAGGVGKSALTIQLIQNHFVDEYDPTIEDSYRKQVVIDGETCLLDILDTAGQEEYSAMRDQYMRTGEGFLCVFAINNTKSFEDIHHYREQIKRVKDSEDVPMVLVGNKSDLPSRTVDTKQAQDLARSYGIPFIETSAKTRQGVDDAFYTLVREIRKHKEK
Chain of KRAS G12V Ba/F3 cells (P01116 whole entry G12V): as the sequence (P01116 whole entry G12D, canonical isoform) above, with D12V counted along it

IC50 (KRAS (G12C)::SOS1): 10 nM
IC50 (KRAS (WT)::SOS1): 25 nM
GI50 (KRAS G12D Ba/F3 cells): 23 nM
GI50 (KRAS G12C Ba/F3 cells): 10 nM
IC50 (KRAS (G12D)::SOS1): 4 nM
solubility at 24 h [1, 3]: 107 µg/mL (≈ 191 µM)
solubility at 24 h [1, 4]: < 1 µg/mL
HLM QH [2]: >88%
SMILES: C[C@H]1CN(C2CCOCC2)CCCN1c1nccc(-c2noc3c2CCC[C@@]32CCCc3sc(N)c(C#N)c32)n1 (single isomer, unassigned) [IIg-1]

IC50 (KRAS (G12C)::SOS1): 19 nM
GI50 (KRAS G12C Ba/F3 cells): 317 nM
IC50 (KRAS (G12D)::SOS1): 8 nM
HLM QH [2]: <24%
SMILES: C[C@H]1CNCCCN1c1cccc(-c2onc3c2CCC[C@@]32CCCc3sc(N)c(C#N)c32)n1 [Ib-3]

IC50 (KRAS (G12C)::SOS1): 8 nM
GI50 (KRAS G12D Ba/F3 cells): 48 nM
GI50 (KRAS G12C Ba/F3 cells): 89 nM
IC50 (KRAS (G12D)::SOS1): 3 nM
solubility at 24 h [1, 3]: 23 µg/mL (≈ 43.4 µM)
solubility at 24 h [1, 4]: 10 µg/mL (≈ 18.9 µM)
HLM QH [2]: >88%
SMILES: C[C@H]1CN(CC2CC2)CCCN1c1nccc(-c2onc3c2CCC[C@@]32CCCc3sc(N)c(C#N)c32)n1 [Ig-1]

IC50 (KRAS (G12C)::SOS1): 12 nM
GI50 (KRAS G12D Ba/F3 cells): 174 nM
GI50 (KRAS G12C Ba/F3 cells): 123 nM
IC50 (KRAS (G12D)::SOS1): 4 nM
solubility at 24 h [1, 3]: > 110 µg/mL
solubility at 24 h [1, 4]: < 1 µg/mL
SMILES: C[C@H]1CN(C2CCOC2)CCCN1c1nccc(-c2onc3c2CCC[C@@]32CCCc3sc(N)c(C#N)c32)n1 (stereo partly drawn) [Ig-2]

IC50 (KRAS (G12C)::SOS1): 6 nM
IC50 (KRAS (WT)::SOS1): 21 nM
GI50 (KRAS G12D Ba/F3 cells): 88 nM
GI50 (KRAS G12C Ba/F3 cells): 108 nM
IC50 (KRAS (G12D)::SOS1): 3 nM
solubility at 24 h [1, 3]: > 153 µg/mL
solubility at 24 h [1, 4]: 76 µg/mL (≈ 142 µM)
HLM QH [2]: >88%
SMILES: C[C@@H](O)CN1CCCN(c2nccc(-c3onc4c3CCC[C@@]43CCCc4sc(N)c(C#N)c43)n2)[C@@H](C)C1 [Ig-4]

The remaining lines, values behind:

SMILES: C[C@H](Oc1nccc(-c2n[nH]c3c2CCCC32CCCc3sc(N)c(C#N)c32)n1)[C@@H]1CCCN1C (stereo partly drawn) [IIIa-1]
IC50 (KRAS (G12C)::SOS1): 28 nM
GI50 (KRAS G12D Ba/F3 cells): 697 nM
GI50 (KRAS G12C Ba/F3 cells): 930 nM
IC50 (KRAS (G12D)::SOS1): 16 nM

SMILES: C[C@H]1CNCCCN1c1nccc(-c2nn(C)c3c2CCC32CCCc3sc(N)c(C#N)c32)n1 (stereo partly drawn) [IIIb-1]
IC50 (KRAS (G12C)::SOS1): 1590 nM
GI50 (KRAS G12D Ba/F3 cells): 15100 nM
GI50 (KRAS G12V Ba/F3 cells): 10400 nM
GI50 (KRAS G12C Ba/F3 cells): 11500 nM
IC50 (KRAS (G12D)::SOS1): 1770 nM
HLM QH [2]: 31%

SMILES: C[C@H](Oc1nccc(-c2nnn3c2CCCC32CCCc3sc(N)c(C#N)c32)n1)[C@@H]1CCCN1C (stereo partly drawn) [IVa-1]
IC50 (KRAS (G12C)::SOS1): 56 nM
GI50 (KRAS G12D Ba/F3 cells): 381 nM
GI50 (KRAS G12C Ba/F3 cells): 521 nM
IC50 (KRAS (G12D)::SOS1): 18 nM
HLM QH [2]: 80%
